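Growth conditions: 96-well plates. Treatment: test compound, 48 hours, 5 concentrations. Analysis: linear interpolation between bracketing concentrations; unreached endpoints set to highest concentration. TGI: total growth inhibition.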
Experiments:
Experiment in all cases: DTP human tumour cell line panel, 48 h
SK-OV-3 ovarian = tested on: SK-OV-3 ovarian
IGROV1 ovarian = tested on: IGROV1 ovarian
RXF 393 renal = tested on: RXF 393 renal
A549 NSCLC = tested on: A549 NSCLC
HT29 colon = tested on: HT29 colon
SF-268 CNS = tested on: SF-268 CNS
LOX IMVI melanoma = tested on: LOX IMVI melanoma
SK-MEL-28 melanoma = tested on: SK-MEL-28 melanoma
NCI-H23 lung = tested on: NCI-H23 lung
EKVX NSCLC = tested on: EKVX NSCLC
MALME-3M melanoma = tested on: MALME-3M melanoma
SF-539 CNS = tested on: SF-539 CNS
HOP-62 NSCLC = tested on: HOP-62 NSCLC
NCI-H522 lung = tested on: NCI-H522 lung
NCI/ADR-RES ovarian = tested on: NCI/ADR-RES ovarian
UACC-62 melanoma = tested on: UACC-62 melanoma
PC-3 prostate = tested on: PC-3 prostate
HCT-116 colon = tested on: HCT-116 colon
CCRF-CEM leukemia = tested on: CCRF-CEM leukemia
K-562 leukemia = tested on: K-562 leukemia
TK-10 renal = tested on: TK-10 renal
KM12 colon = tested on: KM12 colon
OVCAR-5 ovarian = tested on: OVCAR-5 ovarian
786-0 renal = tested on: 786-0 renal
OVCAR-8 ovarian = tested on: OVCAR-8 ovarian
MCF7 breast = tested on: MCF7 breast
T-47D breast = tested on: T-47D breast
MOLT-4 leukemia = tested on: MOLT-4 leukemia
UACC-257 melanoma = tested on: UACC-257 melanoma
MDA-N = tested on: MDA-N
RPMI-8226 leukemia = tested on: RPMI-8226 leukemia
SNB-19 CNS = tested on: SNB-19 CNS
HCC-2998 colon = tested on: HCC-2998 colon
OVCAR-3 ovarian = tested on: OVCAR-3 ovarian
HS 578T breast = tested on: HS 578T breast
COLO 205 colon = tested on: COLO 205 colon
MDA-MB-231 breast = tested on: MDA-MB-231 breast
NCI-H226 lung = tested on: NCI-H226 lung
HL-60(TB) leukemia = tested on: HL-60(TB) leukemia
OVCAR-4 ovarian = tested on: OVCAR-4 ovarian
U251 CNS = tested on: U251 CNS
HOP-92 NSCLC = tested on: HOP-92 NSCLC
UO-31 renal = tested on: UO-31 renal
DU-145 prostate = tested on: DU-145 prostate
SN12C renal = tested on: SN12C renal
BT-549 breast = tested on: BT-549 breast
SNB-75 CNS = tested on: SNB-75 CNS
ACHN renal = tested on: ACHN renal
MDA-MB-435 = tested on: MDA-MB-435
HCT-15 colon = tested on: HCT-15 colon
SF-295 CNS = tested on: SF-295 CNS
CAKI-1 renal = tested on: CAKI-1 renal
M14 melanoma = tested on: M14 melanoma
SW-620 colon = tested on: SW-620 colon
SK-MEL-5 melanoma = tested on: SK-MEL-5 melanoma
SR leukemia = tested on: SR leukemia
SK-MEL-2 melanoma = tested on: SK-MEL-2 melanoma
A498 renal = tested on: A498 renal
NCI-H460 lung = tested on: NCI-H460 lung

CC1(c2nc3ccccc3[nH]2)CCC(C#N)C(C)(C)O1 (stereo unspecified)
TGI (SK-OV-3 ovarian): > 100 µM
TGI (IGROV1 ovarian): > 100 µM
TGI (RXF 393 renal): > 100 µM
TGI (A549 NSCLC): > 100 µM
TGI (HT29 colon): > 100 µM
TGI (SF-268 CNS): > 100 µM
TGI (LOX IMVI melanoma): > 100 µM
TGI (SK-MEL-28 melanoma): > 100 µM
TGI (NCI-H23 lung): > 100 µM
TGI (EKVX NSCLC): > 100 µM
TGI (MALME-3M melanoma): > 100 µM
TGI (SF-539 CNS): > 100 µM
TGI (HOP-62 NSCLC): > 100 µM
TGI (NCI-H522 lung): > 100 µM
TGI (NCI/ADR-RES ovarian): > 100 µM
TGI (UACC-62 melanoma): > 100 µM
TGI (PC-3 prostate): > 100 µM
TGI (HCT-116 colon): > 100 µM
TGI (CCRF-CEM leukemia): > 100 µM
TGI (K-562 leukemia): > 100 µM
TGI (TK-10 renal): > 100 µM
TGI (KM12 colon): > 100 µM
TGI (OVCAR-5 ovarian): > 100 µM
TGI (786-0 renal): > 100 µM
TGI (OVCAR-8 ovarian): > 100 µM
TGI (MCF7 breast): > 100 µM
TGI (T-47D breast): > 100 µM
TGI (MOLT-4 leukemia): > 100 µM
TGI (UACC-257 melanoma): > 100 µM
TGI (MDA-N): > 100 µM
TGI (RPMI-8226 leukemia): > 100 µM
TGI (SNB-19 CNS): > 100 µM
TGI (HCC-2998 colon): > 100 µM
TGI (OVCAR-3 ovarian): > 100 µM
TGI (HS 578T breast): > 100 µM
TGI (COLO 205 colon): > 100 µM
TGI (MDA-MB-231 breast): > 100 µM
TGI (NCI-H226 lung): > 100 µM
TGI (HL-60(TB) leukemia): > 100 µM
TGI (OVCAR-4 ovarian): > 100 µM
TGI (U251 CNS): > 100 µM
TGI (HOP-92 NSCLC): > 100 µM
TGI (UO-31 renal): > 100 µM
TGI (DU-145 prostate): > 100 µM
TGI (SN12C renal): > 100 µM
TGI (BT-549 breast): > 100 µM
TGI (SNB-75 CNS): > 100 µM
TGI (ACHN renal): > 100 µM
TGI (MDA-MB-435): > 100 µM
TGI (HCT-15 colon): > 100 µM
TGI (SF-295 CNS): > 100 µM
TGI (CAKI-1 renal): > 100 µM
TGI (M14 melanoma): > 100 µM
TGI (SW-620 colon): > 100 µM
TGI (SK-MEL-5 melanoma): > 100 µM
TGI (SR leukemia): > 100 µM
TGI (SK-MEL-2 melanoma): > 100 µM

Fc1cc(C2=Nn3c(CNc4ccc(Cl)cc4)nnc3S/C2=C\c2ccc(-c3ccc(Cl)cc3)o2)c(Cl)cc1Cl
TGI (IGROV1 ovarian): > 100 µM
TGI (RXF 393 renal): 61.4 µM
TGI (A549 NSCLC): > 100 µM
TGI (HT29 colon): > 100 µM
TGI (SF-268 CNS): > 100 µM
TGI (LOX IMVI melanoma): > 100 µM
TGI (SK-MEL-28 melanoma): > 100 µM
TGI (NCI-H23 lung): > 100 µM
TGI (EKVX NSCLC): 67.8 µM
TGI (MALME-3M melanoma): 60.7 µM
TGI (HOP-62 NSCLC): 91.6 µM
TGI (NCI-H522 lung): > 100 µM
TGI (NCI/ADR-RES ovarian): 27.5 µM
TGI (UACC-62 melanoma): 55.8 µM
TGI (PC-3 prostate): 51 µM
TGI (HCT-116 colon): > 100 µM
TGI (CCRF-CEM leukemia): > 100 µM
TGI (K-562 leukemia): > 100 µM
TGI (A498 renal): 65.6 µM
TGI (TK-10 renal): > 100 µM
TGI (KM12 colon): > 100 µM
TGI (OVCAR-5 ovarian): 98.5 µM
TGI (786-0 renal): > 100 µM
TGI (OVCAR-8 ovarian): > 100 µM
TGI (MCF7 breast): > 100 µM
TGI (T-47D breast): > 100 µM
TGI (MOLT-4 leukemia): > 100 µM
TGI (UACC-257 melanoma): > 100 µM
TGI (MDA-N): > 100 µM
TGI (RPMI-8226 leukemia): 79.1 µM
TGI (SNB-19 CNS): > 100 µM
TGI (HCC-2998 colon): > 100 µM
TGI (OVCAR-3 ovarian): > 100 µM
TGI (HS 578T breast): > 100 µM
TGI (COLO 205 colon): 88.6 µM
TGI (MDA-MB-231 breast): 32.2 µM
TGI (NCI-H226 lung): > 100 µM
TGI (HL-60(TB) leukemia): > 100 µM
TGI (U251 CNS): 57.6 µM
TGI (UO-31 renal): > 100 µM
TGI (DU-145 prostate): > 100 µM
TGI (SN12C renal): > 100 µM
TGI (BT-549 breast): > 100 µM
TGI (ACHN renal): > 100 µM
TGI (MDA-MB-435): > 100 µM
TGI (HCT-15 colon): > 100 µM
TGI (SF-295 CNS): 52.4 µM
TGI (CAKI-1 renal): 72.4 µM
TGI (M14 melanoma): > 100 µM
TGI (SW-620 colon): > 100 µM
TGI (SK-MEL-5 melanoma): > 100 µM
TGI (SR leukemia): > 100 µM
TGI (SK-MEL-2 melanoma): > 100 µM
TGI (NCI-H460 lung): > 100 µM

— PubChem BioAssay (NCI)
